# Data as given in patent US20260209211A1, “CYCLIN K DEGRADER AND USE THEREOF” (ADLAI NORTYE BIOPHARMA CO., LTD., priority 2022, published 2026).
# Read-outs that look alike come from different tables or passages of the source.
# Key:
# Format in all cases: cell-based
# [1] = test system: HGC27 (Human Gastric Cancer Cell); assay: Bioactivity assay for HGC27 cell growth inhibition (CellTiter-Glo); conditions: read-out: HGC27 CTG IC50
# Method: This detection method is used to evaluate the biological activity of the compounds of the present disclosure at the cellular level.
# (§1) HGC27 cells (purchased from the Chinese Academy of Sciences) were harvested, resuspended in complete medium and adjusted to a cell density of 0.2×10^6 cells per ml. The cell suspension was added to a 96-well plate at a volume of 100 μL per well and cultured overnight in a 37° C., 5% CO2 incubator. Prepare the test compound and add it to the cell plate so that the highest concentration of the compound is 10 μM. Set 8 concentration points according to 3-fold dilution. At the same time, 100% inhibition control wells were set, that is, wells with no cells but only an equal volume of complete culture medium; and 0% inhibition control wells, that is, wells with cells added with 0.1% DMSO. The cell plate was cultured at 37° C. and 5% CO2 for 24 hours. Remove the cell culture plate and add 25 μl CellTiter-Glo® Luminescent Cell Viability Reagent (promega cat #G7573) to each well. Incubate in the dark for 10 minutes and then transfer 100 μL to a white plate and use Molecular Devices SpectraMax i3 to detect chemiluminescence. The inhibition rate was calculated using the following formula for data processing: compound inhibition rate=(0% inhibition control well signal−compound treatment well signal)/(0% inhibition control well signal−100% inhibition control well signal)*100%. The calculated data were fitted with four parameters using GraphPad Prism software and the corresponding IC50 was calculated.
# [2] = test system: NCI-N87 (Human Gastric Cancer Cell); assay: Bioactivity detection of NCI-N87 cell growth inhibition (CellTiter-Glo); conditions: NCI-N87 cells, 72 hours, highest concentration 10 μM, read-out: N87 CTG IC50
# Method: This detection method is used to evaluate the biological activity of the compounds described in this disclosure at the cellular level.
# as §1, with “NCI-N87” for “HGC27”, “0.1×10^6” for “0.2×10^6”, “72” for “24”, “CellTiter-Glo” for “CellTiter-Glo®”, “signal)[…].” for “signal)*100%.”
# [3] = biological target: T1, Cyclin K (CCNK) (Homo sapiens, UniProt O75909+Q9NYV4); assay: Western blot analysis of Cyclin K (CCNK) degradation in HEK293 cells; conditions: 6 h, different concentrations, compared with the control (FIG. 1)
# T1 construct: host or cells: HEK293
# T1 sequence (O75909 whole entry): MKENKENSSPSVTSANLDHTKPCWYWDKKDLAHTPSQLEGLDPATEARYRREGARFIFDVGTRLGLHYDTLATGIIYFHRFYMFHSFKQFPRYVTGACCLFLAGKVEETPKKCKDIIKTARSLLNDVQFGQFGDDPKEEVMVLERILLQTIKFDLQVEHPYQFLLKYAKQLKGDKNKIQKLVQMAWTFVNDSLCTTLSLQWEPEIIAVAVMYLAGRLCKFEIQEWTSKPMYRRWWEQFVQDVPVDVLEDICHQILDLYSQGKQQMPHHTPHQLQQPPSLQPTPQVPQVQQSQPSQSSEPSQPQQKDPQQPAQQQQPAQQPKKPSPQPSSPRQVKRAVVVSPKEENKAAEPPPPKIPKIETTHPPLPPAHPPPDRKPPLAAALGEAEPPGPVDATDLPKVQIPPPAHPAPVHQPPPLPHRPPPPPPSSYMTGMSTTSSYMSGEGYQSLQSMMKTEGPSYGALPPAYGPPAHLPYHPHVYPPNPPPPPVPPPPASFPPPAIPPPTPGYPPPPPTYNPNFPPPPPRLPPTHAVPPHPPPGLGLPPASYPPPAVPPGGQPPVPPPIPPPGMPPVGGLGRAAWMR
# T1 sequence (Q9NYV4 whole entry): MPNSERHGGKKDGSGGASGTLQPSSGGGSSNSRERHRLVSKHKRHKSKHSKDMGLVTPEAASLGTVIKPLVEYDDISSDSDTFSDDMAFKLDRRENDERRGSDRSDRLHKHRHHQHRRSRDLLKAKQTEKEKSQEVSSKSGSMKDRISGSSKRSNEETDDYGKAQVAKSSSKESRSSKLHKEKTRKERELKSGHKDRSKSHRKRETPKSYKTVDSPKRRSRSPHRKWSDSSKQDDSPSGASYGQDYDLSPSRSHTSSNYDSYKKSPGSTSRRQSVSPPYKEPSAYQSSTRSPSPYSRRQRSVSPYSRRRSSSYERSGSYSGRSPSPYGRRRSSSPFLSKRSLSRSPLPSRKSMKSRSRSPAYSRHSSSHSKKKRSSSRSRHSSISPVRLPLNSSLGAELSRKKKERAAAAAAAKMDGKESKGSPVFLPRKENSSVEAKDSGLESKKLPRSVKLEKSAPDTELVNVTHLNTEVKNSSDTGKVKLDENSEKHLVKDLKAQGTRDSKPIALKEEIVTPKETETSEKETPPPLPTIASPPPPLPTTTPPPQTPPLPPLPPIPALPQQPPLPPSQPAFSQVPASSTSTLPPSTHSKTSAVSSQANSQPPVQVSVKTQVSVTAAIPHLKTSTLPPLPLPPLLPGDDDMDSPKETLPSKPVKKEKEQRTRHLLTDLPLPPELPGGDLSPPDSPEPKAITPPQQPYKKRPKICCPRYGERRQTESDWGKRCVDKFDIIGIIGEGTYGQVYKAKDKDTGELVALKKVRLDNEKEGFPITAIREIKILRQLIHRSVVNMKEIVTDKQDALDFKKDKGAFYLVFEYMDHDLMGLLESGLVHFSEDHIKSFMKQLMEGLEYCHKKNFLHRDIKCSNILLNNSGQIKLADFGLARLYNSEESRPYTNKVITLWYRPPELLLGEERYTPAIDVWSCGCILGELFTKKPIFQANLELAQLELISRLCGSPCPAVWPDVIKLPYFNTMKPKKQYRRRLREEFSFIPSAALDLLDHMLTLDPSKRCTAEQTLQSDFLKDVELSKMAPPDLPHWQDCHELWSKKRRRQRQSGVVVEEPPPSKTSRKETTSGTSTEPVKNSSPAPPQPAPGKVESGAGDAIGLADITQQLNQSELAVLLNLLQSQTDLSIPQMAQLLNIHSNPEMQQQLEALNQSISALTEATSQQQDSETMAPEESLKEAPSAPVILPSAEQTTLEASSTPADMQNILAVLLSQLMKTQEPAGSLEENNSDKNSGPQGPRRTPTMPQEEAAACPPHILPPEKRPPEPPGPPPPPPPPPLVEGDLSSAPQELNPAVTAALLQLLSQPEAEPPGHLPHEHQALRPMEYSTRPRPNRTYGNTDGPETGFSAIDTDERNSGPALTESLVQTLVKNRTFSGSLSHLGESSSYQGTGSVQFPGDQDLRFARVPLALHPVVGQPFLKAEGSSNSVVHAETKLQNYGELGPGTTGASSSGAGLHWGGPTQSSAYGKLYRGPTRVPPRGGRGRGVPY
# Method: HEK293 cells (ATCC, cat #CRL-1573) were harvested and the cell density was adjusted to 1×10^6 cells per ml. 1 ml of cell suspension was plated into each well of a 6-well plate and cultured overnight. The compound stock solution was taken and diluted with DMSO to the appropriate concentration. The diluted compounds were added to the cell wells at a ratio of 1:1000 using culture medium to ensure that the DMSO concentration in each well was 0.1%. Negative control wells were also set up, which contained complete medium containing 0.1% DMSO. After treatment with the compounds at the concentrations indicated in the figures and at different times, total cell protein was extracted using RIPA cell lysis buffer (Beyotime, cat #P0013B) containing PMSF. After protein quantification using the BCA protein quantification kit (Thermo Fisher, cat #A53225), each sample was loaded with 40 μg for subsequent SDS-PAGE and western blot experiments. The specific conditions are as follows: after running the gel at a constant voltage of 120 V for 90 minutes, transfer the membrane at a constant current of 320 mA for 60 minutes. Incubate the antibodies according to the recommended dilution ratio and incubation time. The antibody information used in the experiment is as follows: Anti-GAPDH antibody (abcam, cat #ab9485), Anti-Cyclin K antibody (abcam, cat #ab85854), Goat anti-Rabbit IgG (H+L) Cross-Adsorbed Secondary Antibody, HRP (invitrogen, cat #G-21234). ECL luminescent solution (Thermo Fisher, cat #32209) was used for color development. The final results were analyzed using a gel imaging system.
# According to the above detection method, some compounds described in the present disclosure were evaluated.
# [4] = HGC-27, HGC27 cells, 24 hours, CellTiter-Glo, highest concentration 10 μM
"IC50 [1, 4]",IC50 [2],Structure (SMILES),degradation of Cyclin K (western blot) [3],"IC50 ([1]; HGC-27, 24 h)"
25 nM,7.5 nM,C[C@@H](O)[C@@H](C)Oc1nc(NCc2ccc3c(c2)[nH]c2c(CO)ccnc23)ncc1C(F)(F)F [Compound 12],significantly induce the degradation of Cyclin K,
68 nM,3.1 nM,CC[C@@H](Nc1nc(NCc2ccc3c(c2)[nH]c2c(CO)ccnc23)ncc1C(F)(F)F)C(N)=O [Compound 17],significantly induce the degradation of Cyclin K,
151 nM,61 nM,OCc1ccnc2c1[nH]c1cc(CNc3ncc(C(F)(F)F)c(N[C@@H]4CCNC[C@@H]4O)n3)ccc12 [Compound 77],,
244 nM,120 nM,OCc1ccnc2c1[nH]c1cc(CNc3ncc(C(F)(F)F)c(N[C@@H]4CNC[C@@H]4O)n3)ccc12 [Compound 78],,
41 nM,5.4 nM,OCc1ccnc2c3ccc(CNc4ncc(C(F)(F)F)c(N[C@@H]5CNCC[C@@H]5O)n4)cc3nn12 [Compound 80],,
28 nM,6 nM,CO[C@@H](C)[C@@H](Nc1nc(NCc2ccc3c(c2)[nH]c2c(CO)ccnc23)ncc1C(F)(F)F)C(N)=O [Compound 82],,
12 nM,12 nM,N#Cc1ccnc2c1[nH]c1cc(CNc3ncc(C(F)(F)F)c(N[C@@H]4CN(C(=O)CN)CC[C@@H]4O)n3)ccc12 [Compound 87],,
2 nM,2 nM,CN1CC[C@H](O)[C@H](Nc2nc(NCc3ccc4c(c3)[nH]c3c(C#N)ccnc34)ncc2C(F)(F)F)C1 [Compound 88],,
4.9 nM,6 nM,C[C@@H](N)[C@@H](C)Oc1nc(NCc2ccc3c(c2)[nH]c2c(CO)ccnc23)ncc1C(F)(F)F [Compound 90],,
14 nM,5.3 nM,N#Cc1ccnc2c1[nH]c1cc(CNc3ncc(C(F)(F)F)c(O[C@@H]4CNC[C@@H]4O)n3)ccc12 [Compound 91],,
17 nM,4.1 nM,Cn1c2cc(CNc3ncc(C(F)(F)F)c(N[C@@H]4CNCC[C@@H]4O)n3)ccc2c2nccc(C#N)c21 [Compound 93],,
9 nM,3.7 nM,N#Cc1ccnc2c1[nH]c1cc(CNc3ncc(C(F)(F)F)c(N[C@@H]4CN(CCO)CC[C@@H]4O)n3)ccc12 [Compound 94],,
7 nM,2 nM,C[C@@H](O)[C@@H](C)Nc1nc(NCc2ccc3c(c2)[nH]c2c(C#N)ccnc23)ncc1C(F)(F)F [Compound 98],,

# More lines, now with the values behind:
Structure (SMILES),"IC50 [1, 4]",IC50 [2],degradation of Cyclin K (western blot) [3],"IC50 ([1]; HGC-27, 24 h)"
C[C@@H](O)[C@@H](C)Nc1nc(NCc2ccc3c(c2)[nH]c2c(CO)ccnc23)ncc1C(F)(F)F [Compound 18],8 nM,< 1 nM,significantly induce the degradation of Cyclin K,
CO[C@@H](C)[C@@H](Nc1nc(NCc2ccc3c(c2)[nH]c2c(CO)ccnc23)ncc1C#N)C(N)=O [Compound 74],128 nM,75 nM,,
OCc1ccnc2c1[nH]c1cc(CNc3ncc(C(F)(F)F)c(N[C@@H]4CNCC[C@@H]4O)n3)ccc12 [Compound 75],38 nM,22 nM,,
CO[C@@H](C)[C@@H](Nc1nc(NCc2ccc3c(c2)nn2c(CO)ccnc32)ncc1C(F)(F)F)C(N)=O [Compound 79],38 nM,9 nM,,
N#Cc1ccnc2c1[nH]c1cc(CNc3ncc(C(F)(F)F)c(N[C@@H]4CNCC[C@@H]4O)n3)ccc12 [Compound 81],,0.8 nM,,2 nM
Cc1ccnc2c1[nH]c1cc(CNc3ncc(C(F)(F)F)c(N[C@@H]4CNCC[C@@H]4O)n3)ccc12 [Compound 83],8 nM,8 nM,,
CC[C@@H](Oc1nc(NCc2ccc3c(c2)[nH]c2c(CN)ccnc23)ncc1C(F)(F)F)C(N)=O [Compound 84],409 nM,85 nM,,
N#Cc1ccnc2c1[nH]c1cc(CNc3ncc(C(F)(F)F)c(N[C@@H]4CNCC[C@H]4O)n3)ccc12 [Compound 85],,8.5 nM,,17 nM
N#Cc1ccnc2c1[nH]c1cc(CNc3ncc(C(F)(F)F)c(N[C@@H]4CNC[C@@H]4O)n3)ccc12 [Compound 86],6 nM,4 nM,,
N#Cc1ccnc2c1[nH]c1cc(CNc3ncc(C(F)(F)F)c(N[C@@H]4CCNC[C@@H]4O)n3)ccc12 [Compound 89],2 nM,2.9 nM,,
C[C@@H](O)[C@H](Nc1nc(NCc2ccc3c(c2)[nH]c2c(C#N)ccnc23)ncc1C(F)(F)F)C(N)=O [Compound 95],,8 nM,,3 nM
COc1ccnc2c1[nH]c1cc(CNc3ncc(C(F)(F)F)c(N[C@@H](C(N)=O)[C@H](C)OC)n3)ccc12 [Compound 97],43 nM,6.6 nM,,
